Active and inactive are the calls of the source. How the calls were made is not given here.

The target in this assay is Influenza A virus M2 proton channel (A/TW/4845/1999 H1N1). The experiment in a line: M2 proton channel binding, NMR based, influenza A virus H1N1 strain (AID 1549). The following applies: NMR binding screen, M2 protein.
A word on the Kd: it is the constant that tells how readily two partners part at equilibrium. With `CSc1nc(NC(C)C)nc(N2CCOCC2)n1`, the Kd was > 4 mM (inactive).
The result for `O=C(c1ccncc1)N1CCN(C(=O)c2ccncc2)CC1` reads > 4 mM (inactive); that for `Cn1c(CN)nc2ccccc21`, > 4 mM (inactive).
Then `CC(C)C1COc2cc3oc(=O)ccc3cc2O1` (centres undefined), with > 4 mM (inactive); and `NC(=O)CSc1ccc(Br)cc1`, with > 4 mM (inactive).
Then `O=c1[nH]c2sc3c(c2c2ncnn12)CCCC3`, with > 4 mM (inactive); and `Cc1nc2ccccc2c(=O)n1N1C(=O)CCCC1=O`, with > 4 mM (inactive).
As for `Nc1[nH]c(=S)ncc1S(=O)(=O)c1ccccc1`, the Kd was > 4 mM (inactive).
Regarding `Fc1ccc(N2CCNCC2)cc1`, the Kd is > 4 mM (inactive).
Then `Cc1noc(C)c1C(=O)Nc1cccnc1`, with > 4 mM (inactive).
Then `C[C@H](CCC(=O)O)[C@H]1CCC2C3C(CC[C@@]21C)[C@@]1(C)CC[C@@H](O)C[C@H]1C[C@@H]3O` (some centres undefined), with > 4 mM (inactive); and `O=c1c2ccccc2nc2n1CCS2`, with > 4 mM (inactive); and `O=C1CC2OCC=C3CN4CC[C@]56c7ccccc7N1C5[C@H]2[C@H]3CC46` (some centres undefined), with > 4 mM (inactive).
Then `N#Cc1sc2nc3c(c(-c4cccnc4)c2c1N)CCC3`, with > 4 mM (inactive); and `O=C1CCC(C(=O)NCc2cccnc2)N1` (centres undefined), with > 4 mM (inactive).
As to `O=C(O)c1cc2ccccc2o1`, the Kd is > 4 mM (inactive).
Then `Nc1ncnc(NCCCO)c1[N+](=O)[O-]`, with > 4 mM (inactive).
Then `CSc1ccc2nnc(-c3cccnc3)n2n1`, with > 4 mM (inactive); and `CC(=O)Nn1c(=O)[nH]c2ccccc2c1=O`, with > 4 mM (inactive).
`Nc1ccc(-n2cncn2)cc1`: the Kd was > 4 mM (inactive).
The result for `O=c1c(-c2cc(O)c(O)c(O)c2)coc2cc(O)c(O)c(O)c12` reads > 4 mM (inactive).
The result for `COc1ccc2c(=O)c(OC)c(-c3ccccc3)oc2c1` reads > 4 mM (inactive); that for `NCCC(=O)N[C@@H](Cc1cnc[nH]1)C(=O)O`, > 4 mM (inactive); that for `CC(=O)Nc1ccc(NC(C)=O)cc1`, > 4 mM (inactive).
Then `CNC(=O)c1ccc([N+](=O)[O-])cc1Cl`, with > 4 mM (inactive); and `NCc1ccccc1N1CCCCC1`, with > 4 mM (inactive); and `CC(=O)Nc1ccc(-c2cn3ccsc3n2)cc1`, with > 4 mM (inactive).
For the molecule `CC1(C)CC(=O)c2cnn(-c3nc4ccccc4[nH]3)c2C1`, the Kd is > 4 mM (inactive).
Then `OC1CCNC2CCCCC12` (centres undefined), with > 4 mM (inactive).
The result for `Cc1nnsc1C(=O)Nc1cccc(S(N)(=O)=O)c1` reads > 4 mM (inactive); that for `COc1ccc(/C=C2/NC(=S)NC2=O)cc1`, > 4 mM (inactive).
`C=C[C@H]1CN2CC[C@H]1C[C@H]2[C@H](O)c1ccnc2ccccc12`: the Kd was > 4 mM (inactive).
Regarding `Nc1cc(=O)[nH]c(SCC(=O)Nc2nccs2)n1`, the Kd was > 4 mM (inactive).
The result for `CC(C)NC(=O)c1cc(=O)n(C)c(=O)n1C` reads > 4 mM (inactive); that for `NC(=O)c1cccnc1Oc1ccccc1`, > 4 mM (inactive).
In the case of `Cc1ccccc1NC(=O)c1ccccc1`, the Kd is > 4 mM (inactive).
Consider `O=c1oc2ccccc2cc1O`, for which the Kd is > 4 mM (inactive).
The result for `NC(=O)CC1Sc2ccccc2NC1=O` (centres undefined) reads > 4 mM (inactive); that for `CC(=O)OC1CCC2(C)C3CC(=O)C4(C)C(CC5OC6(CCC(C)CO6)[C@@H](C)C54)C3CC[C@H]2C1` (some centres undefined), > 4 mM (inactive).
Then `O=C(Nc1ccccn1)C(=O)N1CCCC1`, with > 4 mM (inactive).
Then `Nc1ccc(N2CCCCC2)cc1`, with > 4 mM (inactive).
Turning to `O=C1CCCN1C(=O)CN1CCOCC1`, the Kd is > 4 mM (inactive).
For `CC1(C)NC(=O)N(CCOc2ccc3c(c2)CCC3)C1=O`, the Kd was > 4 mM (inactive).
The result for `Cc1ccc(C(=O)N2CCC(C(=O)O)CC2)cc1` reads > 4 mM (inactive).
Then `Cc1c(/C=N\n2cnnc2)c2ccccc2n1C`, with > 4 mM (inactive).
The result for `O=C(Nc1ccccc1)Nc1ccccc1` reads > 4 mM (inactive).
Turning to `N#Cc1cc2c(nc1SCc1ccncc1)CCC2`, the Kd is > 4 mM (inactive).
For `CC(C)CCCC(C)[C@H]1CCC2C3CC[C@H]4CC(=O)CC[C@]4(C)C3CC[C@@]21C` (some centres undefined), the Kd was > 4 mM (inactive).
As to `Cc1nn2c(=O)c(NC(=O)c3ccccc3)cnc2s1`, the Kd was > 4 mM (inactive).
Then `COc1cccc(-c2nc3ccc(O)cc3c(=O)o2)c1`, with > 4 mM (inactive); and `Cc1occc1C(=O)Nc1ccc2c(c1)OCO2`, with > 4 mM (inactive).
The result for `COc1cccc(C(=O)N2CCOCC2)c1` reads > 4 mM (inactive); that for `CC1CN(C2=NCCN2)CC(C)O1` (centres undefined), > 4 mM (inactive).
The result for `O=C1C2CCCCC2C(=O)N1Cc1cccnc1` (centres undefined) reads > 4 mM (inactive); that for `O=C(O)c1cc(O)c2c(c1)[C@@H]([C@H]1c3cc(C(=O)O)cc(O)c3C(=O)c3c(O[C@H]4O[C@H](CO)[C@@H](O)[C@H](O)[C@H]4O)cccc31)c1cccc(O[C@H]3O[C@H](CO)[C@@H](O)[C@H](O)[C@H]3O)c1C2=O`, > 4 mM (inactive).
In the case of `CC(=O)NC(=S)Nc1ccc(N(C)C(C)=O)cc1`, the Kd was > 4 mM (inactive).
The result for `NC(=O)CCn1c(=O)oc2ccccc21` reads > 4 mM (inactive); that for `O=C(Nc1cccnc1)N1CCOCC1`, > 4 mM (inactive); that for `CCCn1c(S(=O)(=O)O)nc2ccccc21`, > 4 mM (inactive).
The result for `O=C(O)CCSc1nc2ccccc2s1` reads > 4 mM (inactive); that for `CC(=O)O[C@H]1CC[C@@]2(C)C(C[C@@H](OC(C)=O)[C@@]3(C)C4=CC(=O)O[C@@H](c5ccoc5)[C@]4(C)CCC23)C1(C)C` (some centres undefined), > 4 mM (inactive).
Then `NC(=O)C1CCN(CC2CC=CCC2)CC1` (centres undefined), with > 4 mM (inactive); and `O=C(Nc1ccccc1)c1cccc(N2C(=O)CCC2=O)c1`, with > 4 mM (inactive); and `COc1ccccc1NC(N)=S`, with > 4 mM (inactive).
In the case of `Cc1c(C(=O)NC2=NCCS2)oc2ccccc12`, the Kd was > 4 mM (inactive).
Regarding `CNC(=O)C1CC(=O)N(c2ccc(O)cc2)C1` (centres undefined), the Kd was > 4 mM (inactive).
Then `CSc1ccccc1NC(=O)c1ccco1`, with > 4 mM (inactive).
For `Cc1ccc(NC(=O)C2CCCNC2=O)nc1` (centres undefined), the Kd is > 4 mM (inactive).
On to `CN1CCC[C@H]1c1cccnc1`, for which the Kd was > 4 mM (inactive).
Then `CN(C)c1ccc(CNn2cnnc2)cc1`, with > 4 mM (inactive).
For the molecule `O=C1C2CCCCC2C(=O)N1c1nccs1` (centres undefined), the Kd was > 4 mM (inactive).
The result for `COc1cc(/C=C/C(=O)O)cc(OC)c1OC` reads > 4 mM (inactive); that for `Cn1cnnc1Sc1ncnc(N)c1[N+](=O)[O-]`, > 4 mM (inactive); that for `O=C1CCNc2ccccc2N1`, > 4 mM (inactive).

For the origin of these results see PubChem BioAssay AID1549 (Sanford-Burnham Center for Chemical Genomics, 2009).
